# Measurements published in patent publication US20050009894A1 (Aventis Pharma S.A., priority 2001, published 2005).
# pIC50: −log10 of the molar value.
# Target: T1, human KDR enzyme (Homo sapiens, UniProt P35968)
# T1 construct: The cytoplasmic domain of human KDR enzyme is cloned in the form of a GST fusion; GST; made in house; host or cells: SF21 insect cells (baculovirus, pFastBac)
# Assay: Phosphorylation of the substrate PLCγ by the enzyme KDR in vitro (flashplate technique)
# Type: biochemical
# Settings: Table VII, degrees of activity by IC50 range; read-out: Activity
# Procedure, shortened: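 GST-fused human KDR cytoplasmic domain (Sf21 baculovirus, ~60% pure; 100 ng/well) phosphorylating 2 μg GST-PLCγ SH2-SH3 fragment in MOPS pH 7.2 with MgCl2/MnCl2, 1 h at 37° C. Started with γ33P-ATP plus cold ATP (2 μM in start solution); flashplate radioactivity. % inhibition vs no-compound control; IC50 from dose-response curves.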
# T1 sequence (P35968 786-1356 limits assumed): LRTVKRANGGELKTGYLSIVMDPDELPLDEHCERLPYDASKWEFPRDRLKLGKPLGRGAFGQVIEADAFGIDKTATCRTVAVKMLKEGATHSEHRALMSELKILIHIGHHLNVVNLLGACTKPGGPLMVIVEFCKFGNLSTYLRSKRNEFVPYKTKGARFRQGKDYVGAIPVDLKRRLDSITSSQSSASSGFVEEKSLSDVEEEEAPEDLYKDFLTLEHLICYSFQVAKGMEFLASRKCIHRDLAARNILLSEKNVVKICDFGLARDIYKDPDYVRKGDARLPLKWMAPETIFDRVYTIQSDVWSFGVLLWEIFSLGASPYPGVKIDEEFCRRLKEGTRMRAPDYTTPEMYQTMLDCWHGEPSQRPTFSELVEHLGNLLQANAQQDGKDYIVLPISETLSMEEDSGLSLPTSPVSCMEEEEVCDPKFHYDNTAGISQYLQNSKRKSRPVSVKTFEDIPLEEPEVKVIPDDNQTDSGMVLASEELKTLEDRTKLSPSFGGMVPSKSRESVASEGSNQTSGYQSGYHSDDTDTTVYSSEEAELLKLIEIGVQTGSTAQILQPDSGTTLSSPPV
row,SMILES,pIC50
1,"N#Cc1ccc(COc2cc(-c3nc4ccccc4[nH]3)[nH]n2)cc1 [Example 192, 4-[5-(1H-Benzoimidazol-2-yl)-1H-pyrazol-3-yloxymethyl]-benzonitrile]",< 5.52
2,"O=C(Oc1cc(-c2nc3ccccc3[nH]2)[nH]n1)C1CC1 [Example 221, Cyclopropanecarboxylic acid 5-(1H-benzoimidazol-2-yl)-1H-pyrazol-3-yl ester]",< 5.52
3,"FC(F)(F)Oc1cccc(-c2ccc3nc(-c4[nH]nc5ccccc45)[nH]c3c2)c1 [Example 136, 3-[6-(3-Trifluoromethoxy-phenyl)-1H-benzoimidazol-2-yl]-2H-indazole]",< 5.52
4,"O=C(NCc1ccc(Cl)cc1F)c1ccc2[nH]c(-c3n[nH]c4ccccc34)nc2c1 [Example 158, 2-(1H-Indazol-3-yl)-1H-benzoimidazole-5-carboxylic acid 4-chloro-2-fluoro-benzylamide]",5.52 to 6.52
5,"Fc1c(F)c(F)c(COc2cc(-c3nc4ccccc4[nH]3)[nH]n2)c(F)c1F [Example 189, 2-(5-Pentafluoro-phenylmethoxy-2H-pyrazol-3-yl)-1H-benzoimidazole]",< 5.52
6,"O=C(NCc1ccc([N+](=O)[O-])cc1)c1ccc2[nH]c(-c3n[nH]c4ccccc34)nc2c1 [Example 37, 2-(1H-Indazol-3-yl)-1H-benzoimidazole-5-carboxylic acid 4-nitro-benzylamide]",> 6.52
7,"O=C(NCc1ccc2c(c1)CCO2)c1cccc2nc(-c3n[nH]c4ccccc34)[nH]c12 [Example 87, 2-(1H-Indazol-3-yl)-3H-benzoimidazole-4-carboxylic acid (2,3-dihydro-benzofuran-5-ylmethyl)-amide]",< 5.52
8,"CN(Cc1ccccc1)C(=O)c1ccc2[nH]c(-c3n[nH]c4ccccc34)nc2c1 [Example 152, 2-(1H-Indazol-3-yl)-1H-benzoimidazole-5-carboxylic acid benzyl-methyl-amide]",5.52 to 6.52
9,"O=C(Oc1cc(-c2nc3ccccc3[nH]2)[nH]n1)C(F)(F)C(F)(F)C(F)(F)F [Example 222, 2,2,3,3,4,4,4-Heptafluoro-butyric acid 5-(1H-benzoimidazol-2-yl)-1H-pyrazol-3-yl ester]",< 5.52
10,"O=C(NCc1ccccc1[N+](=O)[O-])c1ccc2[nH]c(-c3n[nH]c4ccccc34)nc2c1 [Example 67, 2-(1H-Indazol-3-yl)-1H-benzoimidazole-5-carboxylic acid 2-nitro-benzylamide]",5.52 to 6.52
11,"CSc1ccccc1CNC(=O)c1cccc2nc(-c3n[nH]c4ccccc34)[nH]c12 [Example 89, 2-(1H-Indazol-3-yl)-3H-benzoimidazole-4-carboxylic acid 2-methylsulfanyl-benzylamide]",> 6.52
12,"O=C(NCc1ccccc1)c1cccc2nc(-c3n[nH]c4ccccc34)[nH]c12 [Example 95, 2-(1H-Indazol-3-yl)-3H-benzoimidazole-4-carboxylic acid benzylamide]",< 5.52
13,"COc1cccc(COc2cc(-c3nc4ccccc4[nH]3)[nH]n2)c1 [Example 197, 2-[5-(3-Methoxy-benzyloxy)-2H-pyrazol-3-yl]-1H-benzoimidazole]",5.52 to 6.52
14,"O=C(Nc1ccccc1)c1cccc2nc(-c3n[nH]c4ccccc34)[nH]c12 [Example 94, 2-(1H-Indazol-3-yl)-3H-benzoimidazole-4-carboxylic acid phenylamide]",5.52 to 6.52
15,"CCOCCCNC(=O)c1ccc2[nH]c(-c3n[nH]c4ccccc34)nc2c1 [Example 29, 2-(1H-Indazol-3-yl)-1H-benzoimidazole-5-carboxylic acid (3-ethoxy-propyl)-amide]",5.52 to 6.52
16,"O=C(COc1cc(-c2nc3ccccc3[nH]2)[nH]n1)c1ccc2ccccc2c1 [Example 207, 2-[5-(1H-Benzoimidazol-2-yl)-1H-pyrazol-3-yloxy]-1-naphthalen-2-yl-ethanone]",< 5.52
17,"C=C(C)COc1cc(-c2nc3ccccc3[nH]2)[nH]n1 [Example 183, 2-[5-(2-Methyl-allyloxy)-2H-pyrazol-3-yl]-1H-benzoimidazole]",< 5.52
18,"CCOCCCNC(=O)c1cccc2nc(-c3n[nH]c4ccccc34)[nH]c12 [Example 74, 2-(1H-Indazol-3-yl)-3H-benzoimidazole-4-carboxylic acid (3-ethoxy-propyl)-amide]",< 5.52
19,"O=C(NCc1ccsc1)c1ccc2[nH]c(-c3n[nH]c4ccccc34)nc2c1 [Example 68, 2-(1H-Indazol-3-yl)-1H-benzoimidazole-5-carboxylic acid (thiophen-3-ylmethyl)-amide]",5.52 to 6.52
20,"Fc1ccc(-c2ccc3nc(-c4[nH]nc5ccccc45)[nH]c3c2)cc1Cl [Example 103, 3-[6-(3-Chloro-4-fluoro-phenyl)-1H-benzoimidazol-2-yl]-2H-indazole]",5.52 to 6.52
21,"O=C(NCc1cc(F)c(F)c(F)c1)c1ccc2[nH]c(-c3n[nH]c4ccccc34)nc2c1 [Example 161, 2-(1H-Indazol-3-yl)-1H-benzoimidazole-5-carboxylic acid 3,4,5-trifluoro-benzylamide]",5.52 to 6.52
22,"Clc1ccc(-c2ccc3nc(-c4[nH]nc5ccccc45)[nH]c3c2)cc1Cl [Example 123, 3-[6-(3,4-Dichloro-phenyl)-1H-benzoimidazol-2-yl]-2H-indazole]",< 5.52
23,"O=C(Oc1cc(-c2nc3ccccc3[nH]2)[nH]n1)C1CCCC1 [Example 223, Cyclopentanecarboxylic acid 5-(1H-benzoimidazol-2-yl)-1H-pyrazol-3-yl ester]",< 5.52
24,"c1ccc2c(-c3nc4ccc(-c5csc6ccccc56)cc4[nH]3)[nH]nc2c1 [Example 132, 3-(6-Benzo[b]thiophen-3-yl-1H-benzoimidazol-2-yl)-2H-indazole]",< 5.52
25,"Cc1cc(Cl)ccc1CNC(=O)c1ccc2[nH]c(-c3n[nH]c4ccccc34)nc2c1 [Example 169, 2-(1H-Indazol-3-yl)-1H-benzoimidazole-5-carboxylic acid 4-chloro-2-methyl-benzylamide]",> 6.52

# Same assay, conditions: read-out: IC50 (μM) on inhibition of the phosphory-lation of PLCγ by KDR
row,SMILES,IC50 [µM]
1,"CN1CCN(C(=O)c2ccc3[nH]c(-c4n[nH]c5ccccc45)nc3c2)CC1 [Example 8, 2-(1H-Indazol-3-yl)-1H-benzimidazole-5-carboxylic acid N-(N′-methyl-piperazino)amide]",0.67
2,"O=C(c1ccc2[nH]c(-c3n[nH]c4ccccc34)nc2c1)N1CCCC1 [Example 9, 2-(1H-Indazol-3-yl)-1H-benzimidazole-5-carboxylic acid N-pyrrolidinoamide]",0.35
